Each structure is given as a SMILES string. pIC50: −log10 of the molar value.

The text below walks through data of patent US20170066759A1, “AROMATIC 5-MEMBERED HETEROCYCLIC DERIVATIVE HAVING TRPV4-INHIBITING ACTIVITY” (Shionogi & Co., Ltd., priority 2012, published 2017).

For the experiment, the target named is T1, human TRPV4 (hTRPV4/CHO cells) (Homo sapiens, UniProt Q9HBA0).
T1 construct: expressed in transfected cells; host or cells: CHO-K1
T1 sequence (Q9HBA0 whole entry): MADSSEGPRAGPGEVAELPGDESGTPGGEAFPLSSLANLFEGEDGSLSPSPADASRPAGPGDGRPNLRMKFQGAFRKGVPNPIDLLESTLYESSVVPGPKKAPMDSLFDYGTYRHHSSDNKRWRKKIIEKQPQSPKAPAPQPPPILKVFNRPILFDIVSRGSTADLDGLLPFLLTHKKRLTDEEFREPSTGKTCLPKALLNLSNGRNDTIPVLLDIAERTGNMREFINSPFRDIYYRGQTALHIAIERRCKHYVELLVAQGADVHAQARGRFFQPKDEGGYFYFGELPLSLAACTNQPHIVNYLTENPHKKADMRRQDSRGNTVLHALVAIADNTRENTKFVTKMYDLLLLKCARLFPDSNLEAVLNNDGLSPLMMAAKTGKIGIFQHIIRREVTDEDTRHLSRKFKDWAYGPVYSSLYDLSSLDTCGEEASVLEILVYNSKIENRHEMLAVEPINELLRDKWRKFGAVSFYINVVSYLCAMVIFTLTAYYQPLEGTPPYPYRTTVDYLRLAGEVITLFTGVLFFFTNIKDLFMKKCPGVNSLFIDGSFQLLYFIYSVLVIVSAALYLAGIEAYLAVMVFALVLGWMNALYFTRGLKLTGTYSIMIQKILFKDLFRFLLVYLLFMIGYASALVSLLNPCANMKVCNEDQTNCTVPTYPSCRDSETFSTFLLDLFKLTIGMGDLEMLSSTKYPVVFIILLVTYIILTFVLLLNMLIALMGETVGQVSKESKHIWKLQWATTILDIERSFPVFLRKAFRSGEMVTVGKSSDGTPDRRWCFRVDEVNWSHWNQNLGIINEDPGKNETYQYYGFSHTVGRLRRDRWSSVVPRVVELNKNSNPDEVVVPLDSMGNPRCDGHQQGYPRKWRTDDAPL
The experiment in a line: Test Example 1: TRPV4 inhibitory activity (IC50 value), 4α-PDD stimulation, Fluo4 calcium fluorescence (FLIPR TETRA). The conditions noted are these: Test Example 1, 4α-PDD stimulation, read-out: Test 1 IC50. Type of experiment: cell-based.
`CC(OC(N)=O)c1nc(CO)sc1-c1csc(NC(=O)Cc2ccc(S(=O)(=O)C(F)(F)F)cc2)n1` (single isomer, unassigned) [Compound I-478]: the pIC50 (commonly the IC50 on a negative log10 scale, so that one unit is a factor of ten) is 6.00 to 7.00. As for `Cc1nc(C(N)=O)sc1-c1csc(NC(=O)C2CC2(F)F)n1` (stereo not drawn) [Compound I-106], the figure is 5.10 to 6.00. As for `Cc1nc(C)c(-c2csc(NC(=O)C3CN(c4ncc(C(F)(F)F)cn4)C3)n2)s1` [Compound I-278], the pIC50 is greater than 7.00. `Cc1nc(CO)sc1-c1csc(NC(=O)C2CN(S(=O)(=O)C(F)(F)F)C2)n1` [Compound I-403]: the pIC50 is 6.00 to 7.00. Under `Cc1nc(C)c(-c2csc(NC(=O)[C@@H]3C[C@@H](c4ccccc4)CN3CC(F)(F)F)n2)s1` [Compound I-292] stands greater than 7.00; under `Cc1nc(CO)sc1-c1csc(NC(=O)Cn2cc(C(F)(F)F)cn2)n1` [Compound I-136], greater than 7.00; under `Cc1nc(C(C)O)sc1-c1csc(NC(=O)[C@@H]2C[C@@H](c3ccccc3)CN2C(=O)C(F)(F)F)n1` (stereo partly drawn) [Compound I-476], greater than 7.00. Under `Cc1nc(C)c(-c2csc(NC(=O)CN3CCN(c4ccccc4)CC3)n2)s1` [Compound I-144] stands 6.00 to 7.00; under `Cc1nc(C)c(-c2csc(NC(=O)Cc3cc(F)cc(C#N)c3)n2)s1` [Compound I-77], greater than 7.00. As for `Cc1nc(CO)sc1-c1csc(NC(=O)[C@H]2C[C@H](C(F)F)C2)n1` [Compound I-552], the pIC50 is 6.00 to 7.00.

As for `Cc1nc(C)c(-c2csc(NC(=O)Cc3cc(C#N)cc(C(=O)N[C@H](c4ccccc4)C(F)(F)F)c3)n2)s1` [Compound I-516], the pIC50 is greater than 7.00. Under `Cc1nc(CO)sc1-c1csc(NC(=O)C2CC3(CCC3)C2)n1` [Compound I-450] stands greater than 7.00.

Turning to `O=C(Cc1ccc(S(=O)(=O)C(F)(F)F)cc1)Nc1nc(-c2sc(CO)nc2CC(=O)N2CCOCC2)cs1` [Compound I-376], the pIC50 was 5.10 to 6.00.

For the compound `COc1ccc(N2CC(C(=O)Nc3nc(-c4sc(CO)nc4C)cs3)CC2=O)cc1` (stereo not drawn) [Compound I-200], the pIC50 is 5.10 to 6.00. With `Cc1nc(C)c(-c2csc(NC(=O)Cn3cc(Cl)cn3)n2)o1` [Compound I-140], the negative logarithm of the IC50 (pIC50) was 5.10 to 6.00. As for `Cc1nc(OCCOCc2ccccc2)sc1-c1csc(NC(=O)Cc2ccc(S(=O)(=O)C(F)(F)F)cc2)n1` [Compound I-446], the pIC50 was 5.10 to 6.00. Under `Cc1nc(CO)sc1-c1csc(NC(=O)CC2CCN(c3ncc(C(F)(F)F)cn3)CC2)n1` [Compound I-449] stands greater than 7.00. As to `Cc1nc(C)c(-c2nc(NC(=O)Cc3c(F)cccc3F)sc2C)s1` [Compound I-72], the pIC50 is 5.10 to 6.00.

For the compound `Cc1nc(C(C)O)oc1-c1csc(NC(=O)Cn2cc(C(F)(F)F)cn2)n1` (racemic) [Compound I-420], the pIC50 was 5.10 to 6.00. As for `Cc1nc(CO)sc1-c1csc(NC(=O)CN2CCC(c3ccccc3)CC2)n1` [Compound I-171], the figure is 6.00 to 7.00.

As for `Cc1nc(CO)sc1-c1csc(NC(=O)C2CCN(CC(F)(F)F)C2)n1` (stereo not drawn) [Compound I-213], the pIC50 is 6.00 to 7.00. As for `O=C(Cc1ccc(S(=O)(=O)C(F)(F)F)cc1)Nc1nc(-c2sc(CO)nc2CNC(=O)C2(C(F)(F)F)CC2)cs1` [Compound I-439], the figure is greater than 7.00; as for `Cc1nc(C)c(-c2csc(NC(=O)Cc3cccc(OC(F)(F)F)c3)n2)o1` [Compound I-137], 6.00 to 7.00; as for `Cc1nc(CO)sc1-c1csc(NC(=O)[C@@H]2C[C@@H](c3ccccc3)CN2C(=O)C(C)(C)F)n1` [Compound I-328], greater than 7.00. Under `Cc1nc(C)c(-c2csc(NC(=O)Cc3ccccc3[N+](=O)[O-])n2)s1` [Compound I-541] stands greater than 7.00; under `Cc1nc(C)c(-c2csc(NC(=O)Cc3ccc(S(=O)(=O)N(C)c4ccccc4)cc3)n2)s1` [Compound I-159], greater than 7.00.

For `Cc1nc(CO)sc1-c1csc(NC(=O)Nc2ccc(C(F)(F)F)nc2)n1` [Compound I-447], the pIC50 was greater than 7.00. Under `Cc1nc(C)c(-c2csc(NC(=O)Cn3cc(CNc4ccccc4)nn3)n2)s1` [Compound I-425] stands 6.00 to 7.00; under `Cc1nc(C)c(-c2csc(NC(=O)C3CCN(S(=O)(=O)c4ccc(F)cc4)CC3)n2)s1` [Compound I-197], 6.00 to 7.00. Under `Cc1nc(C)c(-c2csc(NC3CCCC3)n2)s1` [II-38] stands greater than 7.00; under `Cc1nc(CO)sc1-c1csc(NC(=O)[C@@H]2C[C@@H](c3ccccc3)CN2S(=O)(=O)C(C)C)n1` [Compound I-316], greater than 7.00; under `Cc1nc(C)c(-c2csc(NC(=O)C3CN(c4ccc(C(F)(F)F)cc4)C3)n2)s1` [Compound I-497], greater than 7.00. Under `Cc1nc(C)c(-c2csc(NC(Cc3ccc(Cl)cc3)C(=O)N3CCN(C)CC3)n2)s1` (racemic) [II-45] stands 5.10 to 6.00. `Cc1nc(C)c(-c2csc(NC(=O)C3(COCc4ccccc4)CN(c4ccc(C(F)(F)F)cc4)C3)n2)s1` (racemic) [Compound I-530]: the pIC50 is greater than 7.00. In the case of `N#CCc1nc(CO)sc1-c1csc(NC(=O)C2CN(c3ccc(C(F)(F)F)cc3)C2)n1` [Compound I-334], the pIC50 is greater than 7.00. As for `Cc1nc(C)c(-c2csc(NC(=O)Cc3ccc(S(=O)(=O)C(C)C)cc3)n2)s1` [Compound I-122], the figure is 6.00 to 7.00; as for `Cc1nc(C)c(-c2csc(NC(=O)[C@@H]3C[C@@H](c4ccccc4)CN3C(=O)C(C)C)n2)s1` [Compound I-291], 6.00 to 7.00. For the compound `Cc1nc(C)c(-c2csc(NC(=O)CN3CCC[C@H](c4ccccc4)C3)n2)s1` [Compound I-184], the pIC50 is greater than 7.00. As for `Cc1nc(CC#N)sc1-c1csc(NC(=O)Cc2ccc(S(=O)(=O)C(F)(F)F)cc2)n1` [Compound I-392], the figure is greater than 7.00. As for `Cc1nc(C)c(-c2csc(NC(=O)[C@@H]3C[C@@H](c4ccccc4)CN3C=[N+](C)C)n2)s1` [Compound I-294], the figure is 5.10 to 6.00; as for `Cc1nc(C)c(-c2csc(NC(=O)[C@H]3C[C@H](c4ccccc4)CN3)n2)s1` [Compound I-192], 5.10 to 6.00; as for `Cc1nc(C)c(-c2csc(NC(=O)Cn3cc(-c4ccccc4)nn3)n2)s1` [Compound I-191], greater than 7.00. With `Cc1nc(C)c(-c2csc(NC(=O)Cn3cc(CNC(=O)OC(C)(C)C)nn3)n2)s1` [Compound I-421], the pIC50 was 5.10 to 6.00. On to `Cc1nc(C(C)(C)O)sc1-c1csc(NC(=O)Cc2c(F)cccc2F)n1` [Compound I-97], for which the pIC50 is 6.00 to 7.00. As for `O=C(Nc1nc(-c2sc(CO)nc2CO)cs1)[C@H]1C[C@@H](OCc2ccccc2)C1` [Compound I-549], the pIC50 is 5.10 to 6.00. As for `Cc1nc(C)c(-c2csc(NC(=O)C3CN(Cc4ccccc4C(F)(F)F)C3)n2)s1` [Compound I-260], the figure is greater than 7.00. In the case of `Cc1nc(C)c(-c2csc(NCC(O)c3ccccc3)n2)s1` (racemic) [II-39], the pIC50 is 6.00 to 7.00.

Take `O=C(Nc1nc(-c2sc(CO)nc2CO)cs1)[C@@H]1C[C@@H](c2ccccc2)CN1CC(F)(F)F` [Compound I-337]: the pIC50 was 5.10 to 6.00. Under `Cc1nc(CO)sc1-c1csc(NC(=O)C2CN(c3cccnc3Br)C2)n1` [Compound I-311] stands greater than 7.00. Under `COc1nc(C)c(-c2csc(NC(=O)Cc3ccc(S(=O)(=O)C(F)(F)F)cc3)n2)s1` [Compound I-444] stands greater than 7.00; under `Cc1nc(C)c(-c2csc(NC(=O)C3(C)CCN(c4ccc(C(F)(F)F)cc4)CC3)n2)s1` (racemic) [Compound I-512], greater than 7.00; under `CO[C@H]1C[C@H](C(=O)Nc2nc(-c3sc(C)nc3C)cs2)C1` [Compound I-268], 6.00 to 7.00. Under `Cc1nc(C)c(-c2csc(NC(=O)CC3CN(c4ccc(C(F)(F)F)cc4)C3)n2)s1` [Compound I-492] stands greater than 7.00; under `Cc1nc(C)c(-c2csc(NC(=O)Cc3ccc(S(=O)(=O)CC(F)(F)F)cc3)n2)s1` [Compound I-141], greater than 7.00; under `Cc1nc(C)c(-c2csc(NC(=O)C3Cc4c([N+](=O)[O-])cc(Cl)c(Cl)c4O3)n2)s1` (stereo not drawn) [Compound I-201], greater than 7.00. As for `COC(=O)c1ccc(C(=O)N2CC(C(=O)Nc3nc(-c4sc(C)nc4C)cs3)C2)cc1` [Compound I-261], the negative-log IC50 (pIC50) is 6.00 to 7.00. As for `Cc1nc(C)c(-c2csc(NC(=O)Cn3cc(Br)cn3)n2)s1` [Compound I-132], the figure is greater than 7.00. With `Cc1nc(C)c(-c2csc(CCOCc3ccc(Br)cc3)n2)s1` [II-51], the negative logarithm of the IC50 (pIC50) is 5.10 to 6.00. On to `Cc1nc(C)c(-c2csc(NC(=O)[C@H]3C[C@H](N(C)Cc4ccc(C(F)(F)F)cc4)C3)n2)s1` [Compound I-368], for which the pIC50 was greater than 7.00. On to `CC(O)c1nc(CO)sc1-c1csc(NC(=O)Cc2ccc(S(=O)(=O)C(F)(F)F)cc2)n1` (racemic) [Compound I-235], for which the pIC50 was greater than 7.00.

In the case of `Cc1nc(C)c(-c2csc(NC(=O)C3CN(Cc4ccc(C(F)(F)F)nc4)C3)n2)s1` [Compound I-282], the pIC50 is 6.00 to 7.00. As for `Cc1nc(C)c(-c2csc(NC(=O)[C@@H]3C[C@@H](Oc4ccccc4)CN3C(=O)CO)n2)s1` [Compound I-252], the figure is 5.10 to 6.00; as for `Cc1nc(C)c(-c2csc(NC(=O)CC3CN(Cc4ccc(C(F)(F)F)cc4)C3)n2)s1` [Compound I-491], 5.10 to 6.00; as for `Cc1nc(C)c(-c2csc(NC(=O)N(C)c3c(F)cccc3F)n2)s1` [Compound I-91], 5.10 to 6.00. Take `Cc1nc(CO)sc1-c1csc(NC(=O)C2CC2(F)F)n1` (stereo not drawn) [Compound I-173]: the pIC50 is 6.00 to 7.00.

`Cc1nc(C)c(-c2csc(NC(=O)Cn3cc(-c4ccccc4N(C)C)cn3)n2)s1` [Compound I-169]: the pIC50 is greater than 7.00. As for `Cc1ncsc1-c1csc(NC(=O)Cc2c(F)cccc2F)n1` [Compound I-540], the figure is 6.00 to 7.00.

For the compound `Cc1nc(C)c(-c2csc(NC(=O)Cc3cc(Br)cc(C(=O)N[C@H](c4ccccc4)C(F)(F)F)c3)n2)s1` [Compound I-510], the pIC50 was greater than 7.00. Under `CC(=O)NC(C)c1nc(CO)sc1-c1csc(NC(=O)Cc2ccc(S(=O)(=O)C(F)(F)F)cc2)n1` (single isomer, unassigned) [Compound I-482] stands 6.00 to 7.00.
